# Patent publication US20150239831A1, “INHIBITORS OF CENTRAL NERVOUS SYSTEM VASOACTIVE INHIBITORY PEPTIDE RECEPTOR 2” (The Trustees Of Columbia University In The City Of New York, priority 2012, published 2015)
# Columns and labels:
# Type in all cases: cell-based
# Design in all cases: expressed in transfected cells; host or cells: HEK293 cells transfected with VIPR2 in pCDNA3.1 (as described)
# VIPR2 [1] = target: T1, VIPR2 (Homo sapiens, UniProt P41587); test: Inhibition of VIP-induced β-arrestin recruitment (% Activity Arrestin)
# T1 sequence (P41587 24-438): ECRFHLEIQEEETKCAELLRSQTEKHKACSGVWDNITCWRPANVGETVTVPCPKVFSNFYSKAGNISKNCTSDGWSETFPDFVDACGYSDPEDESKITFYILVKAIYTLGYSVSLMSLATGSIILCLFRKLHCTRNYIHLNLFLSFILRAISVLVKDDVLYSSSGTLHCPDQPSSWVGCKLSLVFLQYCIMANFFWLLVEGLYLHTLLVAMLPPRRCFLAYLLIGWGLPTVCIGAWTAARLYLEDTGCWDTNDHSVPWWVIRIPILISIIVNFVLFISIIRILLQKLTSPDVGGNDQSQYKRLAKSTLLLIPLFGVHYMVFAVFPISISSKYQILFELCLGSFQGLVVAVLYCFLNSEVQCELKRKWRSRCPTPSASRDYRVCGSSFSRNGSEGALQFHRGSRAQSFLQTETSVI
# How it was run: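 HEK293 cells stably expressing β-arrestin2–β-gal EA, transiently transfected with ProLink-tagged hVIPR2, plated overnight; inhibitor added for 2 h at 37 °C, 5% CO2. Receptor–arrestin complementation read by chemiluminescence after 5 min–1 h at room temperature; inhibition of VIP-induced recruitment reported as % activity.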
# VIPR2 [2] = target: T1, VIPR2; test: % Activity: inhibition of VIP-induced cAMP elevation and β-arrestin recruitment (Table 2)
# How it was run: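 cAMP: HEK293 stably expressing hVIPR2, inhibitor plus VIP 30 min, cAMP by HTRF (665/620 nm ratio ×10,000). β-arrestin: HEK293 with β-arrestin2-β-gal-EA, transiently transfected with VIPR2-ProLink; inhibitor 2 h at 37° C, enzyme complementation read by luminescence.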
# VIPR2 [3] = target: T1, VIPR2; test: Inhibition of VIP-induced cAMP elevation (% Activity cAMP)
# How it was run: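 HEK293 cells stably transfected with human VIPR2 were incubated with inhibitor and VIP for 30 min, then cAMP was detected by HTRF after at least 1 h at room temperature. The 665/620 nm ratio ×10,000 was calculated.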
inhibition at 0.5 µM (VIPR2 [1]; Batch 3) [%],inhibition at 1 µM (VIPR2 [1]; Batch 3) [%],inhibition at 5 µM (VIPR2 [1]; Batch 3) [%],% Activity (VIPR2 [2]) [%],inhibition at 0.5 µM (VIPR2 [3]; Batch 3) [%],inhibition at 1 µM (VIPR2 [3]; Batch 3) [%],inhibition at 5 µM (VIPR2 [3]; Batch 3) [%],inhibition at 0.5 µM (VIPR2 [1]; Batch 1) [%],inhibition at 1 µM (VIPR2 [1]; Batch 1) [%],inhibition at 5 µM (VIPR2 [1]; Batch 1) [%],inhibition at 0.5 µM (VIPR2 [3]; Batch 1) [%],inhibition at 1 µM (VIPR2 [3]; Batch 1) [%],inhibition at 5 µM (VIPR2 [3]; Batch 1) [%],inhibition at 0.5 µM (VIPR2 [1]; Batch 2) [%],inhibition at 1 µM (VIPR2 [1]; Batch 2) [%],inhibition at 5 µM (VIPR2 [1]; Batch 2) [%],inhibition at 0.5 µM (VIPR2 [3]; Batch 2) [%],inhibition at 1 µM (VIPR2 [3]; Batch 2) [%],inhibition at 5 µM (VIPR2 [3]; Batch 2) [%],SMILES
2.8,2.3,11.3,15.2,10.8,19.1,19.1,,,,,,,,,,,,,CCCCCNc1ccc(S(=O)(=O)NC[C@@H](O)C[C@@H](Cc2ccccc2)C(=O)N[C@H]2c3ccccc3C[C@H]2O)cc1 [Compound X087]
,,,2.4,,,,-8.1,5.7,-10.3,0.5,2.3,15.1,,,,,,,O=C(NC[C@@H](O)C[C@@H](Cc1ccccc1)C(=O)N[C@H]1c2ccccc2C[C@H]1O)c1cccc(CCl)c1 [O]
,,,12.9,,,,,,,,,,-2.7,8.1,9.8,5.7,7.5,16,O=C(NC1Cc2ccccc2C1)[C@H](Cc1ccccc1)C[C@H](O)CNS(=O)(=O)c1ccc([N+](=O)[O-])cc1 [Compound B2A]
4.2,-1.6,8.7,2.65,9.4,-1.4,-3.4,,,,,,,,,,,,,CN(C)c1ccc(S(=O)(=O)NC[C@@H](O)C[C@@H](Cc2ccccc2)C(=O)N[C@H]2c3ccccc3C[C@H]2O)cc1 [Compound X083]
,,,27.35,,,,24.2,35.1,33.4,18.4,15.2,21.3,,,,,,,O=C(N[C@H]1c2ccccc2C[C@H]1O)[C@H](Cc1ccccc1)C[C@H](O)CNS(=O)(=O)c1cccc([N+](=O)[O-])c1 [L]
,,,13.8000,,,,,,,,,,36.8,27.9,20.2,6.5,19.6,7.4,C[C@H](CC(C)(C)C)NC(=O)[C@@H](Cc1ccccc1)C[C@H](O)CNS(=O)(=O)c1ccc([N+](=O)[O-])cc1 [Compound B10B]
,,,−14.9,,,,,,,,,,-10,6,-7.6,-13.2,-0.9,-22.2,CCNC(=O)[C@@H](Cc1ccccc1)C[C@H](O)CNS(=O)(=O)c1ccc([N+](=O)[O-])cc1 [Compound B16B]
,,,16.55,,,,9.9,23.7,17.5,18.4,19.2,15.6,,,,,,,O=C(CCl)NC[C@@H](O)C[C@@H](Cc1ccccc1)C(=O)N[C@H]1c2ccccc2C[C@H]1O [Compound A7]
,,,8.35,,,,,,,,,,3.5,-9.8,7,14.6,12.6,9.7,NC(=O)[C@@H](Cc1ccccc1)C[C@H](O)CNS(=O)(=O)c1ccc([N+](=O)[O-])cc1 [Compound B12B]
6.3,-1.6,-1,34.25,13.8,22.1,69.5,,,,,,,,,,,,,CNC(=O)c1ccc(S(=O)(=O)NC[C@@H](O)C[C@@H](Cc2ccccc2)C(=O)N[C@H]2c3ccccc3C[C@H]2O)cc1 [Compound X095]
,,,21.1000,,,,,,,,,,23.9,20,24,-5.4,4.7,18.2,O=C(NCc1ccc(F)cc1F)[C@@H](Cc1ccccc1)C[C@H](O)CNS(=O)(=O)c1ccc([N+](=O)[O-])cc1 [Compound B14B]
